Results taken from the NIST ThermoML archive (doi:10.1021/je1001413).

Conditions: Liquid, Vibrating tube method

CC(C)CCCCCCCOC(=O)c1ccccc1C(=O)OCCCCCCCC(C)C
Conditions | mass density [kg/m3]
313.15 K, 100 kPa | 952.6
313.15 K, 200 kPa | 952.6
313.15 K, 400 kPa | 952.8
313.15 K, 620 kPa | 952.9
313.15 K, 800 kPa | 953
313.15 K, 1030 kPa | 953.1
313.15 K, 2010 kPa | 953.7
313.15 K, 3000 kPa | 954.3
313.15 K, 4000 kPa | 955
313.15 K, 5020 kPa | 955.5
313.15 K, 5990 kPa | 956.2
313.15 K, 7030 kPa | 956.7
313.15 K, 8000 kPa | 957.4
313.15 K, 9020 kPa | 957.9
313.15 K, 10010 kPa | 958.5
313.15 K, 15010 kPa | 961.4
313.15 K, 20000 kPa | 964.2
313.15 K, 25030 kPa | 967
313.15 K, 30000 kPa | 969.7
313.15 K, 35020 kPa | 972.2
313.15 K, 40020 kPa | 974.8
313.15 K, 45010 kPa | 977.2
313.15 K, 49970 kPa | 979.7
313.15 K, 55000 kPa | 982
313.15 K, 59980 kPa | 984.4
313.15 K, 64970 kPa | 986.6
323.15 K, 100 kPa | 945.4
323.15 K, 210 kPa | 945.5
323.15 K, 400 kPa | 945.6
323.15 K, 600 kPa | 945.7
323.15 K, 800 kPa | 945.9
323.15 K, 1000 kPa | 946
323.15 K, 2000 kPa | 946.6
323.15 K, 3030 kPa | 947.2
323.15 K, 4030 kPa | 947.9
323.15 K, 5020 kPa | 948.5
323.15 K, 6010 kPa | 949.1
323.15 K, 7000 kPa | 949.7
323.15 K, 8000 kPa | 950.3
323.15 K, 9010 kPa | 950.9
323.15 K, 10020 kPa | 951.6
323.15 K, 15000 kPa | 954.5
323.15 K, 20010 kPa | 957.5
323.15 K, 25030 kPa | 960.3
323.15 K, 30010 kPa | 963.2
323.15 K, 34970 kPa | 965.8
323.15 K, 40000 kPa | 968.5
323.15 K, 45000 kPa | 970.9
323.15 K, 49980 kPa | 973.5
323.15 K, 54980 kPa | 975.8
323.15 K, 60000 kPa | 978.3
323.15 K, 65000 kPa | 980.6
333.15 K, 100 kPa | 938.3
333.15 K, 200 kPa | 938.4
333.15 K, 400 kPa | 938.5
333.15 K, 630 kPa | 938.7
333.15 K, 800 kPa | 938.8
333.15 K, 1000 kPa | 938.9
333.15 K, 2010 kPa | 939.6
333.15 K, 3000 kPa | 940.2
333.15 K, 4000 kPa | 940.9
333.15 K, 5000 kPa | 941.5
333.15 K, 6000 kPa | 942.2
333.15 K, 7030 kPa | 942.8
333.15 K, 7980 kPa | 943.5
333.15 K, 9010 kPa | 944.1
333.15 K, 10030 kPa | 944.8
333.15 K, 14990 kPa | 947.9
333.15 K, 20000 kPa | 951
333.15 K, 25000 kPa | 953.8
333.15 K, 30020 kPa | 956.7
333.15 K, 34990 kPa | 959.4
333.15 K, 39970 kPa | 962.2
333.15 K, 45020 kPa | 964.8
333.15 K, 50000 kPa | 967.4
333.15 K, 55020 kPa | 969.8
333.15 K, 60000 kPa | 972.3
333.15 K, 65000 kPa | 974.7
343.15 K, 100 kPa | 931.2
343.15 K, 220 kPa | 931.3
343.15 K, 430 kPa | 931.5
343.15 K, 610 kPa | 931.6
343.15 K, 810 kPa | 931.8
343.15 K, 1000 kPa | 931.9
343.15 K, 2000 kPa | 932.6
343.15 K, 3000 kPa | 933.3
343.15 K, 3980 kPa | 934
343.15 K, 5010 kPa | 934.6
343.15 K, 5980 kPa | 935.3
343.15 K, 7000 kPa | 936
343.15 K, 7990 kPa | 936.6
343.15 K, 9020 kPa | 937.3
343.15 K, 9980 kPa | 937.9
343.15 K, 15010 kPa | 941.2
343.15 K, 19990 kPa | 944.3
343.15 K, 25010 kPa | 947.4
343.15 K, 29980 kPa | 950.4
343.15 K, 35030 kPa | 953.3
343.15 K, 40030 kPa | 956.1
343.15 K, 45010 kPa | 958.7
343.15 K, 50050 kPa | 961.4
343.15 K, 55000 kPa | 964
343.15 K, 60000 kPa | 966.5
343.15 K, 65020 kPa | 968.9
353.15 K, 100 kPa | 924.2
353.15 K, 200 kPa | 924.3
353.15 K, 410 kPa | 924.5
353.15 K, 630 kPa | 924.6
353.15 K, 800 kPa | 924.8
353.15 K, 1010 kPa | 924.9
353.15 K, 2000 kPa | 925.6
353.15 K, 3000 kPa | 926.3
353.15 K, 3980 kPa | 927
353.15 K, 4990 kPa | 927.7
353.15 K, 6000 kPa | 928.4
353.15 K, 7000 kPa | 929.1
353.15 K, 8010 kPa | 929.8
353.15 K, 9000 kPa | 930.5
353.15 K, 10010 kPa | 931.2
353.15 K, 15040 kPa | 934.6
353.15 K, 20000 kPa | 937.9
353.15 K, 24970 kPa | 941
353.15 K, 29980 kPa | 944.1
353.15 K, 35010 kPa | 947.1
353.15 K, 40000 kPa | 950
353.15 K, 45000 kPa | 952.7
353.15 K, 49990 kPa | 955.5
353.15 K, 55000 kPa | 958.1
353.15 K, 60010 kPa | 960.7
353.15 K, 65020 kPa | 963.2
363.15 K, 100 kPa | 917.2
363.15 K, 200 kPa | 917.3
363.15 K, 420 kPa | 917.4
363.15 K, 600 kPa | 917.6
363.15 K, 800 kPa | 917.7
363.15 K, 990 kPa | 917.9
363.15 K, 2000 kPa | 918.6
363.15 K, 2980 kPa | 919.4
363.15 K, 3960 kPa | 920.1
363.15 K, 4970 kPa | 920.9
363.15 K, 5990 kPa | 921.6
363.15 K, 7020 kPa | 922.3
363.15 K, 7980 kPa | 923
363.15 K, 9030 kPa | 923.8
363.15 K, 10000 kPa | 924.5
363.15 K, 15000 kPa | 928
363.15 K, 19990 kPa | 931.4
363.15 K, 25010 kPa | 934.7
363.15 K, 30020 kPa | 937.9
363.15 K, 34980 kPa | 940.9
363.15 K, 39990 kPa | 943.9
363.15 K, 44980 kPa | 946.8
363.15 K, 49990 kPa | 949.6
363.15 K, 55000 kPa | 952.3
363.15 K, 60040 kPa | 955
363.15 K, 64990 kPa | 957.6
